Experimental data published in the supplement of paper PMC11208160.
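Further: IS621 recombinase and bridge RNA in Escherichia coli cells.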

Experiment: recombinant barcode read abundance after kanamycin selection (control-corrected) (log10(CPM+1)); higher = more efficient recombination; sequences stand for … in AGTGCAGAGAAAATCGGCCAGTTTTCTCTGCCTGCAGTCCGCATGCCGT…AGATTTATGCAGCGGACTGCCTTTCTCCCAAAGTGATAAACCGGACAGTATCATGGACCGGTTTTCCCGGTAATCCGTATTTGCAAGGTTGGTTTCACT; site = the 11-nt target
Outline: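 Recombination efficiency was calculated from barcode counts at recombinant junctions, normalized to counts per million, averaged and corrected by the control. Each value is given as log10(CPM+1). The constructs were Gibson-cloned oligos (promoter, target, barcode, J23119-driven first 104 bridge RNA bases) in a vector with the remaining 73 bp and a T7-inducible recombinase, co-electroporated into E. coli with a donor plasmid and plated in duplicate on chloramphenicol/ampicillin LB agar (control) or chloramphenicol/ampicillin/kanamycin with 0.1 mM IPTG.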
For “CAAACTACTTGGGTTCTAACCTGTTGCCA (site CAAACTACTTG)”, the “recombinant barcode read abundance (log10)” value was 0.0171.
For “CAAACTACTTGGGTTCTAACCTGTTGCCA (site TTGCGGCCTCT)”, the “recombinant barcode read abundance (log10)” value was 0.078.
With “CAAAGAGCTTGGGTTCTAACCTGTTGCTG (site CAAAGAGCTCA)” the “recombinant barcode read abundance (log10)” value was 1.38.
With “CAAAGAGCTTGGGTTCTAACCTGTTGCTG (site GTCCAGCCTGT)” the “recombinant barcode read abundance (log10)” value was 0.0339.
In the case of “CAAAGTCCTTGGGTTCTAACCTGTTGCAT (site CAAAGTCCTAA)”, the “recombinant barcode read abundance (log10)” value is reported as 0.191.
For “CAAAGTCCTTGGGTTCTAACCTGTTGCAT (site CAAAGTCCTAC)”, the “recombinant barcode read abundance (log10)” value was 0.0225.
In the case of “CAAAGTCCTTGGGTTCTAACCTGTTGCAT (site CAAAGTCCTAG)”, the “recombinant barcode read abundance (log10)” value is reported as 0.59.
In the case of “CAAAGTCCTTGGGTTCTAACCTGTTGCAT (site CAAAGTCCTAT)”, the “recombinant barcode read abundance (log10)” value is reported as 1.46.
In the case of “CAAAGTCCTTGGGTTCTAACCTGTTGCGT (site CAAAGTCCTAA)”, the “recombinant barcode read abundance (log10)” value is reported as 0.128.
In the case of “CAAAGTCCTTGGGTTCTAACCTGTTGCGT (site CAAAGTCCTAC)”, the “recombinant barcode read abundance (log10)” value is reported as 2.24.
In the case of “CAAAGTCCTTGGGTTCTAACCTGTTGCGT (site CAAAGTCCTAG)”, the “recombinant barcode read abundance (log10)” value is reported as 0.294.
In the case of “CAAAGTCCTTGGGTTCTAACCTGTTGCGT (site CAAAGTCCTAT)”, the “recombinant barcode read abundance (log10)” value is reported as 0.932.
For “CAAATTACTTGGGTTCTAACCTGTTGCCT (site CAAATTACTAG)”, the “recombinant barcode read abundance (log10)” value was 0.0574.
For “CAAATTACTTGGGTTCTAACCTGTTGCCT (site CAGATGACTAG)”, the “recombinant barcode read abundance (log10)” value was 0.161.
In the case of “CAACCTTCTTGGGTTCTAACCTGTTGCCT (site CAACCTTCTAG)”, the “recombinant barcode read abundance (log10)” value is reported as 0.7.
For “CAACCTTCTTGGGTTCTAACCTGTTGCCT (site CTACCTTCTAG)”, the “recombinant barcode read abundance (log10)” value was 0.025.
For “CAAGACCCTTGGGTTCTAACCTGTTGCCT (site CAAGACCCTAG)”, the “recombinant barcode read abundance (log10)” value was 2.5.
With “CAAGACCCTTGGGTTCTAACCTGTTGCCT (site CACGACCCTAG)” the “recombinant barcode read abundance (log10)” value was 0.763.
With “CAAGACCCTTGGGTTCTAACCTGTTGCCT (site CAGGACCCTAG)” the “recombinant barcode read abundance (log10)” value was 1.05.
For “CAAGACCCTTGGGTTCTAACCTGTTGCCT (site CATGACCCTAG)”, the “recombinant barcode read abundance (log10)” value was 1.17.
In the case of “CAAGAGTCTTGGGTTCTAACCTGTTGCTT (site CAAGAGTCTAA)”, the “recombinant barcode read abundance (log10)” value is reported as 2.26.
In the case of “CAAGAGTCTTGGGTTCTAACCTGTTGCTT (site CGAGAGACTAA)”, the “recombinant barcode read abundance (log10)” value is reported as 0.178.
For “CAAGGGACTTGGGTTCTAACCTGTTGCGG (site CAAGGGACTCC)”, the “recombinant barcode read abundance (log10)” value was 2.33.
With “CAAGGGACTTGGGTTCTAACCTGTTGCGG (site CAGGGGACTCG)” the “recombinant barcode read abundance (log10)” value was 0.0306.
With “CAAGTCCCTTGGGTTCTAACCTGTTGCCT (site AAAGTCCCTAG)” the “recombinant barcode read abundance (log10)” value was 0.0441.
In the case of “CAAGTCCCTTGGGTTCTAACCTGTTGCCT (site CAAGTCCCTAG)”, the “recombinant barcode read abundance (log10)” value is reported as 1.9.
With “CAAGTCCCTTGGGTTCTAACCTGTTGCCT (site GAAGTCCCTAG)” the “recombinant barcode read abundance (log10)” value was 0.207.
With “CAAGTCCCTTGGGTTCTAACCTGTTGCCT (site TAAGTCCCTAG)” the “recombinant barcode read abundance (log10)” value was 0.211.
For “CAAGTCGCTTGGGTTCTAACCTGTTGCCT (site CAAGTAGCTAG)”, the “recombinant barcode read abundance (log10)” value was 0.219.
In the case of “CAAGTCGCTTGGGTTCTAACCTGTTGCCT (site CAAGTCGCTAG)”, the “recombinant barcode read abundance (log10)” value is reported as 1.29.
For “CAAGTCGCTTGGGTTCTAACCTGTTGCCT (site CAAGTGGCTAG)”, the “recombinant barcode read abundance (log10)” value was 0.458.
In the case of “CAAGTCGCTTGGGTTCTAACCTGTTGCCT (site CAAGTTGCTAG)”, the “recombinant barcode read abundance (log10)” value is reported as 0.0227.
In the case of “CAATCCTCTTGGGTTCTAACCTGTTGCCT (site AAATCCTCTAG)”, the “recombinant barcode read abundance (log10)” value is reported as 0.0785.
With “CAATCCTCTTGGGTTCTAACCTGTTGCCT (site CAATCCTCTAG)” the “recombinant barcode read abundance (log10)” value was 1.2.
For “CAATCCTCTTGGGTTCTAACCTGTTGCCT (site GAATCCTCTAG)”, the “recombinant barcode read abundance (log10)” value was 0.0242.
With “CAATCCTCTTGGGTTCTAACCTGTTGCCT (site TAATCCTCTAG)” the “recombinant barcode read abundance (log10)” value was 0.127.
With “CAATCCTCTTGGGTTCTAACCTGTTGCTA (site CAATCCTCTTA)” the “recombinant barcode read abundance (log10)” value was 0.443.
For “CAATCCTCTTGGGTTCTAACCTGTTGCTA (site TCTGTAACTAG)”, the “recombinant barcode read abundance (log10)” value was 0.0981.
With “CAATGGCCTTGGGTTCTAACCTGTTGCCT (site CAAAGGCCTAG)” the “recombinant barcode read abundance (log10)” value was 0.126.
With “CAATGGCCTTGGGTTCTAACCTGTTGCCT (site CAACGGCCTAG)” the “recombinant barcode read abundance (log10)” value was 0.253.
In the case of “CAATGGCCTTGGGTTCTAACCTGTTGCCT (site CAAGGGCCTAG)”, the “recombinant barcode read abundance (log10)” value is reported as 0.27.
With “CAATGGCCTTGGGTTCTAACCTGTTGCCT (site CAATGGCCTAG)” the “recombinant barcode read abundance (log10)” value was 0.571.
In the case of “CACAAAGCTTGGGTTCTAACCTGTTGCCT (site CACAAAGCTAG)”, the “recombinant barcode read abundance (log10)” value is reported as 0.84.
In the case of “CACAAAGCTTGGGTTCTAACCTGTTGCCT (site CACACAGCTAG)”, the “recombinant barcode read abundance (log10)” value is reported as 0.143.
For “CACAACACTTGGGTTCTAACCTGTTGCCT (site CACAACACTAG)”, the “recombinant barcode read abundance (log10)” value was 1.84.
For “CACAACACTTGGGTTCTAACCTGTTGCCT (site CACACCACTAG)”, the “recombinant barcode read abundance (log10)” value was 0.287.
In the case of “CACAACACTTGGGTTCTAACCTGTTGCCT (site CACAGCACTAG)”, the “recombinant barcode read abundance (log10)” value is reported as 0.0135.
In the case of “CACAACACTTGGGTTCTAACCTGTTGCCT (site CACATCACTAG)”, the “recombinant barcode read abundance (log10)” value is reported as 0.0296.
In the case of “CACAAGTCTTGGGTTCTAACCTGTTGCGT (site CACAAGTCTAC)”, the “recombinant barcode read abundance (log10)” value is reported as 1.38.
With “CACAAGTCTTGGGTTCTAACCTGTTGCGT (site CACCAGTCTCC)” the “recombinant barcode read abundance (log10)” value was 0.0392.
In the case of “CACACCACTTGGGTTCTAACCTGTTGCCT (site CACAACACTAG)”, the “recombinant barcode read abundance (log10)” value is reported as 0.243.
With “CACACCACTTGGGTTCTAACCTGTTGCCT (site CACACCACTAG)” the “recombinant barcode read abundance (log10)” value was 0.698.
With “CACACCACTTGGGTTCTAACCTGTTGCCT (site CACAGCACTAG)” the “recombinant barcode read abundance (log10)” value was 0.211.
In the case of “CACACCACTTGGGTTCTAACCTGTTGCCT (site CACATCACTAG)”, the “recombinant barcode read abundance (log10)” value is reported as 0.108.
In the case of “CACACCGCTTGGGTTCTAACCTGTTGCCT (site CACACCGCTAG)”, the “recombinant barcode read abundance (log10)” value is reported as 1.62.
In the case of “CACACCGCTTGGGTTCTAACCTGTTGCCT (site CACACGGCTAG)”, the “recombinant barcode read abundance (log10)” value is reported as 0.0403.
With “CACACTCCTTGGGTTCTAACCTGTTGCAG (site CACACTCCTCT)” the “recombinant barcode read abundance (log10)” value was 0.498.
For “CACACTCCTTGGGTTCTAACCTGTTGCAG (site CAGACGCCTCT)”, the “recombinant barcode read abundance (log10)” value was 0.193.
For “CACAGTGCTTGGGTTCTAACCTGTTGCCT (site CACAGTGCTAG)”, the “recombinant barcode read abundance (log10)” value was 0.235.
With “CACAGTGCTTGGGTTCTAACCTGTTGCCT (site CAGAGTACTAG)” the “recombinant barcode read abundance (log10)” value was 0.0936.
For “CACATACCTTGGGTTCTAACCTGTTGCCG (site CACATACCTAC)”, the “recombinant barcode read abundance (log10)” value was 0.0694.
With “CACATACCTTGGGTTCTAACCTGTTGCCG (site CACATACCTCG)” the “recombinant barcode read abundance (log10)” value was 0.443.
For “CACATACCTTGGGTTCTAACCTGTTGCGT (site CACATACCTAC)”, the “recombinant barcode read abundance (log10)” value was 1.92.
With “CACATACCTTGGGTTCTAACCTGTTGCGT (site CACATACCTCG)” the “recombinant barcode read abundance (log10)” value was 0.0777.
With “CACATCGCTTGGGTTCTAACCTGTTGCCT (site CACATCGCTAG)” the “recombinant barcode read abundance (log10)” value was 1.08.
For “CACATCGCTTGGGTTCTAACCTGTTGCCT (site TACTTCGCTAG)”, the “recombinant barcode read abundance (log10)” value was 0.155.
With “CACATGGCTTGGGTTCTAACCTGTTGCCG (site CACAGGGCTCC)” the “recombinant barcode read abundance (log10)” value was 0.159.
In the case of “CACATGGCTTGGGTTCTAACCTGTTGCCG (site CACATGGCTCG)”, the “recombinant barcode read abundance (log10)” value is reported as 0.259.
In the case of “CACCAACCTTGGGTTCTAACCTGTTGCCT (site CACCAAACTAG)”, the “recombinant barcode read abundance (log10)” value is reported as 0.112.
With “CACCAACCTTGGGTTCTAACCTGTTGCCT (site CACCAACCTAG)” the “recombinant barcode read abundance (log10)” value was 0.313.
With “CACCAGTCTTGGGTTCTAACCTGTTGCGG (site CACAAGTCTAC)” the “recombinant barcode read abundance (log10)” value was 0.0664.
With “CACCAGTCTTGGGTTCTAACCTGTTGCGG (site CACCAGTCTCC)” the “recombinant barcode read abundance (log10)” value was 2.14.
In the case of “CACCCTACTTGGGTTCTAACCTGTTGCCT (site AACCCTACTAG)”, the “recombinant barcode read abundance (log10)” value is reported as 0.04.
For “CACCCTACTTGGGTTCTAACCTGTTGCCT (site CACCCTACTAG)”, the “recombinant barcode read abundance (log10)” value was 1.26.
With “CACCCTACTTGGGTTCTAACCTGTTGCCT (site GACCCTACTAG)” the “recombinant barcode read abundance (log10)” value was 0.0997.
In the case of “CACCCTACTTGGGTTCTAACCTGTTGCCT (site TACCCTACTAG)”, the “recombinant barcode read abundance (log10)” value is reported as 0.0523.
In the case of “CACCGTCCTTGGGTTCTAACCTGTTGCGT (site CACCGTCCTAC)”, the “recombinant barcode read abundance (log10)” value is reported as 3.03.
With “CACCGTCCTTGGGTTCTAACCTGTTGCGT (site CACCGTCCTAT)” the “recombinant barcode read abundance (log10)” value was 1.57.
With “CACCTGACTTGGGTTCTAACCTGTTGCCG (site CACCTGACTCG)” the “recombinant barcode read abundance (log10)” value was 0.599.
For “CACCTGACTTGGGTTCTAACCTGTTGCCG (site CACCTGTCTCG)”, the “recombinant barcode read abundance (log10)” value was 0.0187.
With “CACCTGTCTTGGGTTCTAACCTGTTGCGG (site AGATATACTAA)” the “recombinant barcode read abundance (log10)” value was 0.0793.
For “CACCTGTCTTGGGTTCTAACCTGTTGCGG (site CACCTGTCTCC)”, the “recombinant barcode read abundance (log10)” value was 1.8.
For “CACGATCCTTGGGTTCTAACCTGTTGCTT (site AGTCGGACTGT)”, the “recombinant barcode read abundance (log10)” value was 0.11.
In the case of “CACGATCCTTGGGTTCTAACCTGTTGCTT (site CACGATCCTAA)”, the “recombinant barcode read abundance (log10)” value is reported as 1.52.
For “CACGCAACTTGGGTTCTAACCTGTTGCTT (site CACGCAACTAA)”, the “recombinant barcode read abundance (log10)” value was 0.476.
In the case of “CACGCAACTTGGGTTCTAACCTGTTGCTT (site GAGGCAACTAA)”, the “recombinant barcode read abundance (log10)” value is reported as 0.888.
